Inhibition data for 14 molecules are collected here from patent US8541585B2, “N-acyl cyclic amine derivative or pharmaceutically acceptable salt thereof” (Dainippon Sumitomo Pharma Co., Ltd., priority 2010, dated 2013).

For experiment [1], the target named is T1, human 5-HT6 receptor (Homo sapiens, UniProt P50406).
T1 construct: expressed in transfected cells; host or cells: CHO cells (membrane preparation)
Description: Serotonin 5-HT6 receptor binding assay ([3H]-clozapine). The conditions noted are these: 100 nM test drug; [3H]-clozapine 2 nM; human 5-HT6 receptor-expressing CHO cell membrane; read-out: BINDING INHIBITION RATE (%) 5HT6 100 nM. On the procedure: (3) Serotonin 5-HT6 Receptor Binding Assay
After a reaction in a total volume of 200 μL of 50 mM Tris-HCl (pH=7.6), 4 mM CaCl2, and 0.5 mM EDTA buffer solution containing 50 μL of [^3H]-clozapine (final concentration 2 nM), 1 μL of test drug in DMSO, and 149 μL of human 5-HT6 receptor-expressing CHO cell membrane sample, human 5-HT6 receptor binding activity of [^3H]-clozapine was measured. The reaction solution let stand for 40 minutes at room temperature, and then it was quickly added on a glass fiber filter plate (Multiscreen FB, Millipore inc.) coated with 0.3% polyethyleneimine (PEI) and filtered under reduced pressure. The glass fiber filter was washed with 200 μL of ice-cooled 50 mM Tris-HCl (pH=7.6) twice, repeatedly filtered under reduced pressure, and then transferred to a vial containing 4 mL of Ecoscint A (National Diagnostics inc.). The residual radioactivity on the glass fiber filter was measured by a liquid scintillation counter. Nonspecific binding was measured in the presence of 10 μM of SB-258585, and [^3H]-clozapine binding inhibition rate in the presence of 100 nM of test drug was determined.

For experiment [2], the target named is T2, human α1D receptor (Homo sapiens, UniProt P25100).
T2 construct: expressed in transfected cells; host or cells: CHO cells (membrane preparation)
T2 sequence (P25100 1-572): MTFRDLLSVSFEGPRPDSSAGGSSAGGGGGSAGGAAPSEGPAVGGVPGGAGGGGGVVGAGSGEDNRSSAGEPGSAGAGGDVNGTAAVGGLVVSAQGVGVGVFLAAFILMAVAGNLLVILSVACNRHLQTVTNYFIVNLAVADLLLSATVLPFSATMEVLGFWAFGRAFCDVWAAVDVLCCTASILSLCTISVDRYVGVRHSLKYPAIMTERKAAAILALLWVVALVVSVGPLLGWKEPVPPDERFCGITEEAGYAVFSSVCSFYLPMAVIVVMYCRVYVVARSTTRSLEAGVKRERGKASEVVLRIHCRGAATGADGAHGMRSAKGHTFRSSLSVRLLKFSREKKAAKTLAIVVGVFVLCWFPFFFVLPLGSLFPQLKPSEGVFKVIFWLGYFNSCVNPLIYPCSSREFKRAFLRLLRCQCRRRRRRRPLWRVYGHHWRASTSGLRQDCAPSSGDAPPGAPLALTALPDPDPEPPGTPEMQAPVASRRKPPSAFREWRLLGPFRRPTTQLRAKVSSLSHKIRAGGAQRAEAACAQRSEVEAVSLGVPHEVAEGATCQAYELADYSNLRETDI
Description: Adrenaline α1D receptor binding assay ([3H]-prazosin). The settings on record: 100 nM test drug; [3H]-prazosin 0.6 nM; human α1D receptor-expressing CHO cell membrane; read-out: BINDING INHIBITION RATE (%) α1D 100 nM. How it is done:
(4) Adrenaline α1D Receptor Binding Assay
After a reaction in a total volume of 200 μL of 50 mM Tris-HCl (pH=7.6) buffer solution containing 50 μL of [^3H]-prazosin (final concentration 0.6 nM), 1 μL of test drug in DMSO, and 149 μL of human α1D receptor-expressing CHO cell membrane sample, human α1D receptor binding activity of [^3H]-prazosin was measured. The reaction solution let stand for 30 minutes at room temperature, and then it was quickly added on a glass fiber filter plate (Multiscreen FB, Millipore inc.) coated with 0.3% polyethyleneimine (PEI) and filtered under reduced pressure. The glass fiber filter was washed with 200 μL of ice-cooled 50 mM Tris-HCl (pH=7.6) twice, repeatedly filtered under reduced pressure, and then transferred to a vial containing 4 mL of Ecoscint A (National Diagnostics inc.). The residual radioactivity on the glass fiber filter was measured by a liquid scintillation counter. Nonspecific binding was measured in the presence of 1 μM of prazosin, and [^3H]-prazosin binding inhibition rate in the presence of 100 nM of test drug was determined.

The target in experiment [3] is human D2L receptor (Homo sapiens, UniProt P14416). Description: Dopamine D2L receptor binding assay ([3H]-spiperone). The settings on record: 10 nM test drug; [3H]-spiperone 0.5 nM; human D2L receptor-expressing CHO cell membrane; read-out: BINDING INHIBITION RATE (%) D2L 10 nM. On the procedure:
(1) Dopamine D2L Receptor Binding Assay
D2L receptor binding assay was performed in reference to a method described by Hirose et al. (Japan. J. Pharmacol., 53, 321-329, 1990). After a reaction in a total volume of 200 μL of 50 mM Tris-HCl (pH=7.6) buffer solution containing 50 μL of [^3H]-spiperone (final concentration 0.5 nM), 1 μL of test drug in DMSO, and 149 μL of human D2L receptor-expressing CHO cell membrane sample, human D2L receptor binding activity of [^3H]-spiperone was measured. The reaction solution let stand for 60 minutes at room temperature, and then it was quickly added on a glass fiber filter plate (Multiscreen FB, Millipore inc.) coated with 0.3% polyethyleneimine (PEI) and filtered under reduced pressure. The glass fiber filter was washed with 200 μL of ice-cooled 50 mM Tris-HCl (pH=7.6) twice, repeatedly filtered under reduced pressure, and then transferred to a vial containing 4 mL of Ecoscint A (National Diagnostics inc.). The residual radioactivity on the glass fiber filter was measured by a liquid scintillation counter. Nonspecific binding was measured in the presence of 10 μM of spiperone, and [^3H]-spiperone binding inhibition rate in the presence of 10 nM of test drug was determined. The larger binding inhibition rate (%) means that test drug has the higher binding affinity for human D2L receptor.

Experiment [4] deals with T3, human 5-HT2A receptor (Homo sapiens, UniProt P28223).
T3 construct: expressed in transfected cells; host or cells: CHO cells (membrane preparation)
Description: Serotonin 5-HT2A receptor binding assay ([3H]-ketanserin). The conditions noted are these: [3H]-ketanserin 1 nM, human 5-HT2A receptor-expressing CHO cell membrane; for inhibition at 0.01 µM: 10 nM test drug, read-out: BINDING INHIBITION RATE (%) 5HT2A 10 nM; for inhibition at 0.001 µM: 1 nM test drug, read-out: BINDING INHIBITION RATE (%) 5HT2A 1 nM. How it is done:
(2) Serotonin 5-HT2A Receptor Binding Assay
5-HT2A receptor binding assay was performed in reference to a method described by Hirose et al. (Japan. J. Pharmacol., 53, 321-329, 1990). After a reaction in a total volume of 200 μL of 50 mM Tris-HCl (pH=7.6) buffer solution containing 50 μL of [^3H]-ketanserin (final concentration 1 nM), 1 μL of test drug in DMSO, and 149 μL of human 5-HT2A receptor-expressing CHO cell membrane sample, human 5-HT2A receptor binding activity of [^3H]-ketanserin was measured. The reaction solution let stand for 15 minutes at 37° C., and then it was quickly added on a glass fiber filter plate (Multiscreen FB, Millipore inc.) coated with 0.05% Brij 35 and filtered under reduced pressure. The glass fiber filter was washed with 200 μL of ice-cooled 50 mM Tris-HCl (pH=7.6) twice, repeatedly filtered under reduced pressure, and then transferred to a vial containing 4 mL of Ecoscint A (National Diagnostics inc.). The residual radioactivity on the glass fiber filter was measured by a liquid scintillation counter. Nonspecific binding was measured in the presence of 10 μM of MDL-100907, and [^3H]-ketanserin binding inhibition rate in the presence of 1 nM or 10 nM of test drug was determined.

human D2L receptor, sequence (P14416 whole entry): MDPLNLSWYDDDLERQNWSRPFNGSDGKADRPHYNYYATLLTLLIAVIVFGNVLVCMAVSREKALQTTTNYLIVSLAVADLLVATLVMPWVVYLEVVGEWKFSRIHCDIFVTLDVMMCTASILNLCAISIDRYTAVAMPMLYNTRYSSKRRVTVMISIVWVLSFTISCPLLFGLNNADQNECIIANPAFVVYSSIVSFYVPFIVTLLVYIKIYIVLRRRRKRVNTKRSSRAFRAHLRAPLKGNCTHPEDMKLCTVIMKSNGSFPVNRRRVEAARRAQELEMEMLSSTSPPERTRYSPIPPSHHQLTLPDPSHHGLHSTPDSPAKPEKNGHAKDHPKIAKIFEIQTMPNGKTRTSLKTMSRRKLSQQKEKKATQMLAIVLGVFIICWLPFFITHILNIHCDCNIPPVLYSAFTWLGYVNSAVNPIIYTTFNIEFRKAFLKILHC
T1 sequence (P50406 whole entry): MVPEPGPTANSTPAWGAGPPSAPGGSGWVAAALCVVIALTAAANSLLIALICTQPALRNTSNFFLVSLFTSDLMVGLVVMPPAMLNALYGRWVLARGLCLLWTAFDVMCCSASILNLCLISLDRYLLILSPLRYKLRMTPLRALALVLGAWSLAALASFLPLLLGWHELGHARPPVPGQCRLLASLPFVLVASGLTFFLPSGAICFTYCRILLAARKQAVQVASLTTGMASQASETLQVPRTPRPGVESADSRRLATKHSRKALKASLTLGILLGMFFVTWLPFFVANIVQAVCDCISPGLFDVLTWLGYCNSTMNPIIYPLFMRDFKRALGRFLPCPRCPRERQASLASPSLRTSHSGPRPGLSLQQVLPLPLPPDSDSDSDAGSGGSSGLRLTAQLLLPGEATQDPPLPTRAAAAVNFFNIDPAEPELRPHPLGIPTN
T3 sequence (P28223 whole entry): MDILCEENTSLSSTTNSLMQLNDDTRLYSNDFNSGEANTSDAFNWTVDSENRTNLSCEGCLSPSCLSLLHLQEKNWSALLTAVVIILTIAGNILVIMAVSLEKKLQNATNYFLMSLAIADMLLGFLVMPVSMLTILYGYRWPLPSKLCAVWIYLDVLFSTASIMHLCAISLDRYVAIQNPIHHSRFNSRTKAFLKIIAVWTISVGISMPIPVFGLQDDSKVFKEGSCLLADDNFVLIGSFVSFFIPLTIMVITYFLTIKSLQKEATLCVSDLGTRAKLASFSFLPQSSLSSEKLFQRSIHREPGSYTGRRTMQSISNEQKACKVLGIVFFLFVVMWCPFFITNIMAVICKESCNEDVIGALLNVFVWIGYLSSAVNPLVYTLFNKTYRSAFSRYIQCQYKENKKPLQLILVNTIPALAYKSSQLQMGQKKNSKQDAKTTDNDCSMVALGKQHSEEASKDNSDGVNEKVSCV

`O=C(/C=C/c1ccc2c(c1)OCO2)N1CC[C@H]1CCN1CCC(c2noc3cc(F)ccc23)CC1` [Example 18]: the values for the inhibition at 0.1 µM in experiment [1] and in experiment [2] were 74% and 102%, respectively. Also, the inhibition at 0.01 µM in experiment [3] was 54%; in experiment [4], 100%.

Turning to `O=C(c1ccc(F)cc1)C1CCN(CC[C@@H]2CCCN2C(=O)c2cc3ccc(OC(F)(F)F)cc3[nH]2)CC1` [Example 160, (S)-(2-(2-(4-(4-Fluorobenzoyl)piperidin-1-yl)ethyl)pyrrolidin-1-yl)(6-(trifluoromethoxy)-1H-indol-2-yl)methanone], the results for the inhibition at 0.1 µM in experiment [1] and in experiment [2] were 98% and 53%, respectively. Besides, the inhibition at 0.01 µM in experiment [3] is 90%. The inhibition at 0.001 µM in experiment [4] was 72%.

In the case of `Cc1ccc2cc(C(=O)N3CCOCCC3CCN3CCC(c4c[nH]c5ccccc45)CC3)[nH]c2c1` (stereo not drawn) [Example 43], the inhibition at 0.1 µM in experiment [1] came to 83%; in experiment [2] it was 82%. For the same molecule, the inhibition at 0.01 µM in experiment [3] came out at 74%. Moreover, in experiment [4], the inhibition at 0.001 µM came to 77%.

In the case of `O=C(c1ccc(F)cc1)C1CCN(CC[C@@H]2CCCN2C(=O)c2cc3c(F)cccc3[nH]2)CC1` [Example 62], the inhibition at 0.1 µM was determined as 87% in experiment [1] and 43% in experiment [2]. In addition, in experiment [3], the inhibition at 0.01 µM came to 81%. Further, in experiment [4], the inhibition at 0.001 µM was found to be 61%.

In the case of `O=C(c1nc2cc(Cl)ccc2[nH]1)N1CCCC[C@H]1CCN1CCC(c2c[nH]c3ccccc23)CC1` [Example 58], the inhibition at 0.1 µM worked out at 98% in experiment [1] and 97% in experiment [2]. Also, the inhibition at 0.01 µM turned out to be 57% in experiment [3] and 91% in experiment [4]. Also, the inhibition at 0.001 µM in experiment [4] was 74%.

For the molecule `CC(C)c1ccc2cc(C(=O)N3CCC[C@H]3CCN3CCC(C(=O)c4ccc(F)cc4)CC3)[nH]c2c1` [Example 161, (S)-(2-(2-(4-(4-Fluorobenzoyl)piperidin-1-yl)ethyl)pyrrolidin-1-yl)(6-isopropyl-1H-indol-2-yl)methanone], the inhibition at 0.1 µM is 97% in experiment [1] and 66% in experiment [2]. Further, the inhibition at 0.01 µM in experiment [3] is 49%. The inhibition at 0.001 µM in experiment [4] came out at 69%.

`COc1ccc2[nH]c(C(=O)N3CCC[C@H]3CCN3CCC(c4cn(-c5ccc(F)cc5)c5ccc(Cl)cc45)CC3)cc2c1` [Example 60]: the inhibition at 0.1 µM turned out to be 97% in experiment [1] and 76% in experiment [2]. The inhibition at 0.01 µM was determined as 76% in experiment [3] and 78% in experiment [4].

As to `Cc1ccc2cc(C(=O)N3CCC[C@H]3CCN3CCC(N4CCc5cc(F)ccc54)CC3)[nH]c2c1` [Example 3], the inhibition at 0.1 µM in experiment [1] is 94%; in experiment [2] it was 74%. Moreover, the inhibition at 0.01 µM in experiment [3] is 80%. Besides, the inhibition at 0.001 µM in experiment [4] is 65%.

As to `COc1cc2cc(C(=O)N3CCC[C@H]3CCN3CCC(C(=O)c4ccc(F)cc4)CC3)[nH]c2cn1` [Example 50], the figures for the inhibition at 0.1 µM in experiment [1] and in experiment [2] were 88% and 43%, respectively. Further, the inhibition at 0.01 µM in experiment [3] turned out to be 71%. Moreover, in experiment [4], the inhibition at 0.001 µM stood at 66%.

For `CCNC(=O)O[C@@H]1C[C@@H](CCN2CCC(c3c[nH]c4ccccc34)CC2)N(C(=O)c2cc3cc(OC)ccc3[nH]2)C1` [Example 36], the values for the inhibition at 0.1 µM in experiment [1] and in experiment [2] were 86% and 75%, respectively. In addition, the inhibition at 0.01 µM in experiment [3] came out at 48%; in experiment [4], 87%.

Take `Cc1ccc2cc(C(=O)N3CCCC[C@H]3CCN3CCN(c4n[nH]c5ccccc45)CC3)[nH]c2c1` [Example 23]: the inhibition at 0.1 µM in experiment [1] worked out at 75%; in experiment [2], 34%. For the same molecule, the inhibition at 0.01 µM in experiment [3] was determined as 62%. The inhibition at 0.001 µM in experiment [4] turned out to be 34%.

`Cc1ccc2cc(C(=O)N3CCC[C@H]3CCN3CCN(c4nsc5cc(F)ccc45)CC3)[nH]c2c1` [Example 13]: the results for the inhibition at 0.1 µM in experiment [1] and in experiment [2] were 93% and 60%, respectively. In addition, in experiment [3], the inhibition at 0.01 µM amounted to 72%. Also, the inhibition at 0.001 µM in experiment [4] was found to be 34%.

With `Cc1ccc2cc(C(=O)N3CCC[C@H]3CCN3CCC(c4noc5cc(F)ccc45)CC3)[nH]c2c1` [Example 6, (S)-(2-(2-(4-(6-Fluorobenzo[d]isoxazol-3-yl)piperidin-1-yl)ethyl)pyrrolidin-1-yl)(6-methyl-1H-indol-2-yl)methanone], the inhibition at 0.1 µM in experiment [1] stood at 94%; in experiment [2], 71%. Moreover, the inhibition at 0.01 µM in experiment [3] turned out to be 91%. For the same molecule, in experiment [4], the inhibition at 0.001 µM is 61%.

For the molecule `O=C(c1ccc(F)cc1)C1CCN(CC[C@@H]2CCCN2C(=O)c2[nH]c3cc(OC(F)(F)F)ccc3c2F)CC1` [Example 164, (S)-(3-Fluoro-6-(trifluoromethoxy)-1H-indol-2-yl)(2-(2-(4-(4-fluorobenzoyl)piperidin-1-yl)ethyl)pyrrolidin-1-yl)methanone], the inhibition at 0.1 µM in experiment [1] was determined as 99%; in experiment [2], 43%. The inhibition at 0.01 µM in experiment [3] came to 79%. Besides, in experiment [4], the inhibition at 0.001 µM amounted to 56%.
